Several values for one entry are separate records, joined by “and”; a condition that tells them apart may be missing. Identical values can stand only once.
Tests used:
S. mansoni [1] = details: ref [1]; cited from earlier work
S. mansoni [2] = system: S. mansoni; set-up: key: “+++” indicates a complete reduction of worms at 50 mg/kg dosing (×5); “++” indicates complete reduction of worms at 500 mg/kg dosing (×5); “+” indicates less than 90% worm reduction at 500 mg/kg dosing (×5); “0” indicates no effect at 500 mg/kg dosing (×5); details: mouse model, dosing ×5; ref [1]; cited from earlier work
H. nana = system: H. nana; set-up: key: “+++” indicates a complete reduction of worms at 25 mg/kg dosing (×1); “++” indicates complete reduction of worms at 500 mg/kg dosing (×1); “+” indicates less than 90% worm reduction at 500 mg/kg dosing (×1); “0” indicates no effect at 500 mg/kg dosing (×1); details: mouse model, dosing ×1; ref [1]; cited from earlier work
Sm.TRPMPZQ = Sm.TRPMPZQ (Schistosoma mansoni, UniProt A0A5K4F0X5); assay: cell-based; type: cell-based; details: for this work: EC50 (μM) Sm.TRPMPZQ / EC50: HEK293 transient expression, mean ± SEM, n ≥ 3 independent transfections; for EC50: read-out: this work: EC50 (μM) Sm.TRPMPZQ
Sequence of Sm.TRPMPZQ (A0A5K4F0X5 entry or part of it): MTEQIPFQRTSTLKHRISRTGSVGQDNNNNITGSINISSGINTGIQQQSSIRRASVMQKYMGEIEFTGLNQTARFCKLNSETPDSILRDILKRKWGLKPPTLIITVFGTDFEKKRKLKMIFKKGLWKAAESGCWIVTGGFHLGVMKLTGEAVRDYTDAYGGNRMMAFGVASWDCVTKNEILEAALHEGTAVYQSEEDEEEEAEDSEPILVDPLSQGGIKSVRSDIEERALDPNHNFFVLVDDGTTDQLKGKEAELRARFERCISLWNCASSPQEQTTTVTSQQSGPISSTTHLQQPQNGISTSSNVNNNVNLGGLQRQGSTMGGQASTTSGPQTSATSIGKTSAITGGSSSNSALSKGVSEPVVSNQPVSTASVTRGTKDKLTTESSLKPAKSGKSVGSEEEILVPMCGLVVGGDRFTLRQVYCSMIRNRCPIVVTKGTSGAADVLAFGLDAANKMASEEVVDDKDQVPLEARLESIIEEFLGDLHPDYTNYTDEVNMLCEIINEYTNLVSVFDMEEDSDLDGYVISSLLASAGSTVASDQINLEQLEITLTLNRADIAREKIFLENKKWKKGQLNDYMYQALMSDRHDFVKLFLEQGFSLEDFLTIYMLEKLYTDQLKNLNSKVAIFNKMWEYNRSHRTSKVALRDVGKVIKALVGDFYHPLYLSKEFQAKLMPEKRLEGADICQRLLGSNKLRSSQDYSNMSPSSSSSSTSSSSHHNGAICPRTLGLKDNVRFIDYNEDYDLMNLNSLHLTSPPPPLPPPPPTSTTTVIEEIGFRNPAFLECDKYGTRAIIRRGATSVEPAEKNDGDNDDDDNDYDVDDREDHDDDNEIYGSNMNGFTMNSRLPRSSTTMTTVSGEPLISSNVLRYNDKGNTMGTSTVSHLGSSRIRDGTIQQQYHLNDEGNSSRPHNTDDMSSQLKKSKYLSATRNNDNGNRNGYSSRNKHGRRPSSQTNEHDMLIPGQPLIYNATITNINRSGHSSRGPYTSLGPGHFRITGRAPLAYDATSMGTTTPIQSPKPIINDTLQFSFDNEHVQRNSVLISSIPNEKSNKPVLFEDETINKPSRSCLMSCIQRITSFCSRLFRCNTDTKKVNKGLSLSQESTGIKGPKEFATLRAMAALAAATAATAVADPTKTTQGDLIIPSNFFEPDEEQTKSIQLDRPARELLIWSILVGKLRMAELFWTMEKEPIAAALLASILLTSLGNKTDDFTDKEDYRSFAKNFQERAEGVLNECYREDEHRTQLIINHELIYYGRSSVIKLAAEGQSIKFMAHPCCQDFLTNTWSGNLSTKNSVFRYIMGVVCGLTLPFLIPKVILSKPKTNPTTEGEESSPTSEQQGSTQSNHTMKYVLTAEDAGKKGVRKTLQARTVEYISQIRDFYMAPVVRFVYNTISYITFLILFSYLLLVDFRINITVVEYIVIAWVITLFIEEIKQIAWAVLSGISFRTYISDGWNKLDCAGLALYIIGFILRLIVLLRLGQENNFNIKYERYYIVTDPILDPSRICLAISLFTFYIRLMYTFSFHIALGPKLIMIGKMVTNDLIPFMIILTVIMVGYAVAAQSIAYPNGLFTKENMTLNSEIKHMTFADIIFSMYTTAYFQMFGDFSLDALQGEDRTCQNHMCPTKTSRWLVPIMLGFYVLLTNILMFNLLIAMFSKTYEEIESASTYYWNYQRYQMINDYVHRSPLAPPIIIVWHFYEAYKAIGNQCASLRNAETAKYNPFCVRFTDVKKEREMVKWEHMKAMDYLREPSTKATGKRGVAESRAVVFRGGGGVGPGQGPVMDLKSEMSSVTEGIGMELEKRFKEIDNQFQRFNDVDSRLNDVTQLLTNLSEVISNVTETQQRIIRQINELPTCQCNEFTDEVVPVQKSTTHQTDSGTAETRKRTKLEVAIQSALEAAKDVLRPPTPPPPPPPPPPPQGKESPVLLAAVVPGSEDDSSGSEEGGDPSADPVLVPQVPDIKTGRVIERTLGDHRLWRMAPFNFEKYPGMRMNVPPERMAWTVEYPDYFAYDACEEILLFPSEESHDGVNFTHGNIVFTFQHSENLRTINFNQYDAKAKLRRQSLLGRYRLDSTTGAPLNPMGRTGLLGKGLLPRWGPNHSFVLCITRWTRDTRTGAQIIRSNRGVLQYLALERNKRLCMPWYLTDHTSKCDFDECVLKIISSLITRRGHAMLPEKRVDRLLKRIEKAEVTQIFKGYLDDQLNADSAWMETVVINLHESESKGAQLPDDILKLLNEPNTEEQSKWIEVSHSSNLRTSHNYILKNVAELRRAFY
Description: (§1) This was done using a fluorescence-based reporter assay to measure changes in cytosolic Ca^2+ in HEK293 cells transiently expressing the individual TRPMPZQ ion channels.
(§2) Sprague et. al. Supporting Information
(§3) Cell Culture and transfection. Activation of the three TRPMPZQ orthologs1 (Sm.TRPMPZQ, Eg.TRPMPZQ and Mc.TRPMPZQ) was measured using a Ca2+ reporter assay, following transient transfection of codon-optimized constructs (Genscript) into HEK293 cells.
(§4) The HEK293 cell line (ATCC CRL-1573.3) was authenticated by STR profiling (ATCC), and cells were evaluated for mycoplasma contamination by monthly scheduled testing (LookOut® Mycoplasma PCR Detection Kit, Sigma). HEK293 cells were cultured at 37 °C in a humidified incubator in Dulbecco’s Modified Eagle Medium (DMEM) supplemented with 10% fetal bovine serum (FBS), penicillin (100 units/mL), streptomycin (100 μg/mL), and L-glutamine (290 μg/mL). Cells were transfected using Lipofectamine-2000 at a density of 3x10^6 cells per petri dish (100 mm diameter) 24 h prior to replating into 384 well plates for functional assays.
(§5) Ca2+ imaging assays. Ca2+ imaging assays were performed using a Fluorescence Imaging Plate Reader (FLIPR TETRA, Molecular Devices). HEK293 cells (naïve or transfected) were seeded (20,000 cells/well) in a black-walled clear-bottomed poly-d-lysine coated 384-well plate (Greiner Bio-One) in DMEM growth media supplemented with 10% FBS. After 24 h, growth medium was removed, and cells were loaded with a fluorescent Ca2+ indicator (Fluo-4 NW dye, Invitrogen) by incubation (20 µL per well, 1 h at 37°C) in Hanks' balanced salt solution (HBSS) assay buffer containing probenecid (2.5 mM) and HEPES (20 mM). Drug dilutions were prepared in assay buffer, without probenecid and dye, in ‘V’-shape 384-well plates (Greiner Bio-one, Germany). After indicator loading, the Ca2+ assay was performed at room temperature. Basal fluorescence was monitored for 20 s, then 5 μL of each drug added, and the signal (raw fluorescence units) was monitored over an additional 250 s. Changes in fluorescence were calculated by subtracting the average basal fluorescence (averaged values between 0 to 20 s) from the maximum fluorescence value. These values were normalized to the response of (±)-PZQ at the corresponding TRPMPZQ channel and plotted. Concentration-response curves were generated in GraphPad Prism (v.
(§6) 9.5.1) using the default three -parameter curve fitting and constraining the bottom of the curve to 0%. The reported EC 50 values represent the mean ± SEM of n ≥ 3 independent transfections. […]

Eg.TRPMPZQ = Eg.TRPMPZQ (Echinococcus granulosus, UniProt W6UVV9); type: cell-based; details: Eg.TRPMPZQ and Mc.TRPMPZQ; for activity at cestode TRPMPZQ orthologs (in words): both cestode channels
Sequence of Eg.TRPMPZQ (W6UVV9 entry or part of it): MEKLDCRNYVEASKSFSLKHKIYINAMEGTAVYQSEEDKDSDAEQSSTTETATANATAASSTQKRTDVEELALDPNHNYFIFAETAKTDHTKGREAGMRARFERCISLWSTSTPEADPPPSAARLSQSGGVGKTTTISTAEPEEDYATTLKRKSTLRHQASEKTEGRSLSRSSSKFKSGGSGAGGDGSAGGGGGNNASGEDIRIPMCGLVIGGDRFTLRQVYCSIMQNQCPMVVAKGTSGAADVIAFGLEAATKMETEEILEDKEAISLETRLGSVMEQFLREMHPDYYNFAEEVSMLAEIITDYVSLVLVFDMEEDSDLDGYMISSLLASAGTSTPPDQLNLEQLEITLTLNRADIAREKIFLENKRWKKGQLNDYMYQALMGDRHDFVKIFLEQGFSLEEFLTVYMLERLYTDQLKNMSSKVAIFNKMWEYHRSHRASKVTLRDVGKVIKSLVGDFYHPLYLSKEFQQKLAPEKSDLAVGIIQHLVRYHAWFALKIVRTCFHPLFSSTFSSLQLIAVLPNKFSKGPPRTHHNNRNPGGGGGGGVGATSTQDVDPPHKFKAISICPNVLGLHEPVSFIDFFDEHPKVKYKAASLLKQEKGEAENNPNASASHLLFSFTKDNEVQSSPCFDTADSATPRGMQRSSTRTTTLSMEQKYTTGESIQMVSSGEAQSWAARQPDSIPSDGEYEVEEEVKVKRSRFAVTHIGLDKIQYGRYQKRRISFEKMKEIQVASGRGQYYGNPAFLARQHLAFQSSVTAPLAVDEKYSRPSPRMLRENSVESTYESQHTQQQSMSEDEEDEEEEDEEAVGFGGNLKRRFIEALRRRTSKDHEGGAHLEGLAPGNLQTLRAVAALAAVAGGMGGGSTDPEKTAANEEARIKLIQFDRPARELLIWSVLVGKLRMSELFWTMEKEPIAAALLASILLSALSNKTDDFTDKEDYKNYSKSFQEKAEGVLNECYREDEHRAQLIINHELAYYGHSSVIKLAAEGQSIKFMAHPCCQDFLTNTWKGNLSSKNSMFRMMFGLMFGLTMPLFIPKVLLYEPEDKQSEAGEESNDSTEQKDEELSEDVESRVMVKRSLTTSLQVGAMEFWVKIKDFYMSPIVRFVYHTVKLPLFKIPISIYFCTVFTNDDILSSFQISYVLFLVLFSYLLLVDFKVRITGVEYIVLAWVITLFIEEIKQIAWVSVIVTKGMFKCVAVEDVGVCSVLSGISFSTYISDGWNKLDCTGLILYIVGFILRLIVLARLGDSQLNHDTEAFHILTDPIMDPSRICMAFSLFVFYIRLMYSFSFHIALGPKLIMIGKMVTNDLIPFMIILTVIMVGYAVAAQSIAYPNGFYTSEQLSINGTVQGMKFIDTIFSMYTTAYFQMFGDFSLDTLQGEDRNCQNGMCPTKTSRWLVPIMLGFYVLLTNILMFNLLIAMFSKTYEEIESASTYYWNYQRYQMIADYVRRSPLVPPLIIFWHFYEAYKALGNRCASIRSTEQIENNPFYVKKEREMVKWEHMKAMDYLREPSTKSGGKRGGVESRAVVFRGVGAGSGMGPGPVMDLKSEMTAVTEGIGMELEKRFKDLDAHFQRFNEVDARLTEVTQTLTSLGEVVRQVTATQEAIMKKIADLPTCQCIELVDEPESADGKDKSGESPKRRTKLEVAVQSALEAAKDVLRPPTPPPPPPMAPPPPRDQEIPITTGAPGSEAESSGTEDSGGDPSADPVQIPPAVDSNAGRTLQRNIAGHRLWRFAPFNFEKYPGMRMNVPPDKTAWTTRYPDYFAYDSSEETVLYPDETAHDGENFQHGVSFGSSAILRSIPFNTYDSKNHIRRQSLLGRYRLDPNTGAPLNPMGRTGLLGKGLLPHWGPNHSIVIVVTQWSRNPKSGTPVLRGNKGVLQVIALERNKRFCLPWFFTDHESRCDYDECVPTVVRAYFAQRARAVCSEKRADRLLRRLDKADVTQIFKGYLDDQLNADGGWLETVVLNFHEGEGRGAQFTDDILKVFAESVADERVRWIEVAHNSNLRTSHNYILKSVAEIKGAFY
Description: as §1, §2, §3, §4, §5, §6

[3] = system: E. multilocularis protoscoleces; assay: Cestode motility assay on protoscoleces; type: cell-based, Echinococcus multilocularis; details: for IC50: Echinococcus multilocularis
Description: To determine IC50 values, concentration–response curves were obtained at multiple time points (Figure 2E–G).
Figure 2 E. multilocularis protoscoleces after treatment with (A) DMSO, (B) (±)-PZQ (1 μM), (C) (R)-2 (30 μM), and (D) (S)-2 (100 μM). (E–G) Concentration–response motility graphs of E. multilocularis protosoleces after treatment with (±)-PZQ (blue circles), (R)-2 (red circles), and (S)-2 (purple circles) after (E) 0.5 h, (F) 12 h, and (G) 24 h. Data are plotted as % motility vs vehicle (DMSO) control (mean ± SEM). […]
Cestode motility assays . Protoscoleces of E. multilocularis strain MB17 were isolated from metacestode material grown in experimentally infected gerbils (kindly provided by Prof. Dr. K. Brehm, University of Würzburg, Germany). Extraction and acti vation of protoscoleces, as well as subsequent motility assays were performed as described previously. 2 In short, protoscoleces were activated by 10% DMSO for 3 h at 37°C, in a humid atmosphere, with 5% CO 2 and left to recover overnight in DMEM (Biochrom, Berlin, Germany) supplemented with 10% FBS (Biochrom) at 37°C, in a humid atmosphere, with 5% CO 2. The next day, 25 protoscoleces were distributed into individual wells of a white, flat -bottom 384 well plate (Huberlab, Aesch, Switzerland). PZQ analogs were added […]
The assay plate was sealed with a clear view seal foil (Huberlab), and motility was measured in a live cell imaging system (Nikon TE2000E, Hamatsu ORCA ER

Row | Compound | previous studies S. mansoni in vitro (activity grade) (S. mansoni [1]) | previous studies S. mansoni in vivo (activity grade, worm reduction) (S. mansoni [2]) | previous studies H. nana in vivo (activity grade, worm reduction) (H. nana) | this work: EC50 (μM) Sm.TRPMPZQ (Sm.TRPMPZQ) | EC50 (Sm.TRPMPZQ) | activity at Sm.TRPMPZQ (in words) (Sm.TRPMPZQ) | activity at cestode TRPMPZQ orthologs (in words) (Eg.TRPMPZQ) | IC50 ([3]; after 24 h) | contraction of the protoscoleces (in words) ([3]; (±)-PZQ 1 μM, (R)-2 30 μM, (S)-2 100 μM, compared with vehicle control) | IC50 ([3]; 12 h postincubation) | effect of prolonged treatment on protoscoleces (in words) ([3]; after 24 h) | effect of low concentrations on motility (in words) ([3]; low concentrations, early time points (0.5 h)) | concentrations activating both cestode TRPMPZQ representatives (Eg.TRPMPZQ)
1 | O=C(C1CCCCC1)N1CC(=O)N2CCc3ccccc3[C@@H]2C1 [(R)-PZQ, reference compound] | +++ (“+++” indicates a maximal effect ≤3.2 μM) | +++ | +++ | – | – | – | – | – | – | – | – | – | –
2 | CN(C)c1ccc(C(=O)N2CC(=O)N3CCc4ccccc4C3C2)cc1 (stereo not shown) [Compound 5] | 0 (“0” indicates no effect at ≤320 μM) | ++ | +++ | inactive | – | – | – | – | – | – | – | – | –
3 | O=C(C1CCCCC1)N1CC(=O)N2CCc3ccccc3[C@H]2C1 [(S)-PZQ, reference compound] | ++ (“++” indicates a maximal effect ≤320 μM) | + | ++ | – | – | – | – | – | – | – | – | – | –
4 | Nc1ccc(C(=O)N2CC(=O)N3CCc4ccccc4C3C2)cc1 (stereo not shown) [Compound 6] | ++ (“++” indicates a maximal effect ≤320 μM) | ++ | +++ | – | 11.6 µM and 12 µM | – | – | – | – | – | – | – | –
5 | CNc1ccc(C(=O)N2CC(=O)N3CCc4ccccc4C3C2)cc1 (stereo not shown) [Compound 4] | 0 (“0” indicates no effect at ≤320 μM) | ++ | +++ | inactive | – | – | – | – | – | – | – | – | –
6 | O=C(c1cccnc1)N1CC(=O)N2CCc3ccccc3C2C1 (racemic) [(±)-2] | + (“+” indicates a less than maximal effect at ≤320 μM) | + | +++ | inactive | – | little activity | low-micromolar potency | – | – | – | – | – | –
7 | O=C(c1cccnc1)N1CC(=O)N2CCc3ccccc3[C@H]2C1 [(S)-2] | 0 (“0” indicates no effect at ≤320 μM) | 0 | ++ | inactive | – | – | – | ~30 µM | – | – | – | – | –
8 | O=C(c1cccnc1)N1CC(=O)N2CCc3ccccc3[C@@H]2C1 [(R)-2] | 0 (“0” indicates no effect at ≤320 μM) | ++ | +++ | – | > 100 µM | – | – | ~3 µM | – | – | – | – | –
9 | O=C(C1CCCCC1)N1CC(=O)N2CCc3ccccc3C2C1 (stereo not shown) [Compound 1, praziquantel] | +++ (“+++” indicates a maximal effect ≤3.2 μM) | +++ | +++ | – | – | – | – | – | sustained contraction | ~0.1 µM | toxic | stimulated motility | –
10 | N[C@H]1CC[C@@H](C(=O)N2CC(=O)N3CCc4ccccc4C3C2)CC1 (stereo partly shown) [Compound 7] | 0 (“0” indicates no effect at ≤320 μM) | 0 | + | inactive | – | lacked activity | only weakly active | – | – | – | – | – | –
11 | O=C(C1CC1)N1CC(=O)N2CCc3ccccc3C2C1 (stereo not shown) [Compound 8] | 0 (“0” indicates no effect at ≤320 μM) | + | ++ | inactive | – | Little activity | clearly active | – | – | – | – | – | > 10 µM
12 | O=C(c1ccc([N+](=O)[O-])cc1)N1CC(=O)N2CCc3ccccc3C2C1 (stereo not shown) [Compound 3] | 0 (“0” indicates no effect at ≤320 μM) | + | ++ | inactive | – | – | – | – | – | – | – | – | –

— article PMC10641913 (ACS Medicinal Chemistry Letters, 2023)
